Results: patent US20100209536A1, “Methods and Kits for Use in the Treatment and Prevention of Diseases or Conditions of the Immune System or Infectious Diseases” (The Brigham and Women's Hospital, Inc., priority 2006, published 2010)

Tests used:
Type in all cases: in vivo, human
[1] = tested on: any wheeze in the first 2 yrs; assay: Project Viva antioxidant study: maternal intake and any wheeze in the first 2 yrs; conditions: for Any wheeze in the first 2 yrs, Univariate Model OR (95% CI) / Any wheeze in the first 2 yrs, Multivariable Model OR (95% CI): including supplements; for Any Wheeze, Foods Only OR / Any Wheeze, Supplements Only OR: univariate; for Any Wheeze, Foods Only OR: intake from foods only; for Any Wheeze, Supplements Only OR: intake from supplements only; for Association of total maternal intake with any wheeze in univariable models: total intakes
From the text: (§1) Study subjects were enrolled in Project Viva, as described above. Recruitment and retention procedures have previously been published (Gillman et al., J. Pediatr. 144:240-245, 2004). We obtained information directly from participants and from medical records as detailed previously (Rifas-Shiman, Paediatr. Perinat. Epidemiol. 20:35-42, 2006). Data collected from interviews and questionnaires included demographics (infant gender, maternal marital status, and race), socioeconomic status (education and household income), and reproductive history (maternal gravidity, pre-pregnancy height and body mass index, and smoking). Questionnaires that inquired about infant health, feeding, and the home environment were administered when the child was 6 months, 1 year, and 2 years of age. Among 2,128 delivered infants in Project Viva, we excluded 228 participants because of missing first and second trimester diet assessment data and an additional 37 participants with a gestation of less than 34 completed weeks.
(§2) We assessed maternal diet using semi-quantitative food-frequency questionnaires (FFQ) validated for use during pregnancy (Fawzi et al., Ann. Epidemiol. 14:754-762, 2004), and used in several of our previous studies of maternal diet and offspring outcomes (Oken et al., Am. J. Epidemiol. 160:774-783, 2004; Huh et al., Int. J. Epidemiol. 34:378-384, 2005; Gillman et al., Circulation 110:1990-1995, 2004). As noted above, the FFQ used at the 1st visit reflected intakes in the 1st trimester; the time referent was “during this pregnancy,” that is from the date of the last menstrual period until the assessment, at an average of about 10 weeks gestation. To assess vitamin and supplement intake during the 1st trimester, we administered a separate interview that queried dose, duration, and brand/type of multivitamin, prescribed prenatal vitamins, and supplements. Also as noted above, the FFQ used at the 2nd visit (26 to 28 weeks of gestation) reflected intakes during the 2nd trimester; the time referent was “during the past 3 months.” The 2nd trimester instrument was the same as that for the 1st trimester except that we assessed use of vitamins/supplements as part of the self-completed FFQ.
(§3) To calculate intake of nutrients, we again used the Harvard nutrient composition database, which contains food composition values from the U.S. Department of Agriculture, supplemented by other data sources (U.S. Department of Agriculture ARS. USDA National Nutrient Database for Standard Reference, Release 14, 5R14; 2001). All nutrients were adjusted for total energy intake using the nutrient residuals method (Willett, Am. J. Clin. Nutr. 45:354-360, 1987). Mean nutrient intakes from the 1st and 2nd trimesters were used as the exposure in the analyses. If a participant only completed one FFQ, then nutrients calculated from that questionnaire were taken as the exposure of interest. One thousand one hundred and thirty-five (88.0%) of the 1,290 participants completed both FFQs, 96 (7.4%) completed the first trimester FFQ only, and 59 (4.6%) completed the second trimester FFQ only.
(§4) We ascertained the wheeze outcomes from questions from the First Year and Second Year Questionnaires: “since your child was born/since your child was […], has he/she ever had wheezing (or whistiling in the chest)?” “Any wheeze” was defined as a positive response to the question at either the first or second year questionnaire. “Recurrent wheeze” was defined as positive responses to the questions in both the first and second year questionnaires. […] “Respiratory infections” was defined as positive responses to one of three questions: “since your child was born/12 months old, have you been told by a health care professional (such as a doctor, physician assistant, or nurse practitioner) that your child has: (a) bronchiolitis; (b) pneumonia; (c) bronchitis, croup, or any other respiratory infection?” on either the first or second year questionnaires. […]

[2] = tested on: recurrent wheeze in the first 2 yrs; assay: Project Viva antioxidant study: maternal intake and recurrent wheeze in the first 2 yrs; conditions: for Recurrent wheeze in the first 2 yrs, Multivariable Model OR (95% CI) / Recurrent wheeze in the first 2 yrs, Univariate Model OR (95% CI): including supplements; for Recurrent Wheeze, Foods Only OR / Recurrent Wheeze, Supplements Only OR: univariate; for Recurrent Wheeze, Foods Only OR: intake from foods only; for Recurrent Wheeze, Supplements Only OR: intake from supplements only
From the text: as §1, §2, §3, §4

[3] = tested on: respiratory infections in the 2-year old children; assay: Project Viva antioxidant study: maternal intake and respiratory infections in 2-year old children
From the text: as §1
We assessed maternal diet using semi-quantitative food-frequency questionnaires (FFQ) validated for use during pregnancy (Fawzi et al., Ann. Epidemiol. 14:754-762, 2004), and used in several of our previous studies of maternal diet and offspring outcomes (Oken et al., Am. J. Epidemiol. 160:774-783, 2004; Huh et al., Int. J. Epidemiol. 34:378-384, 2005; Gillman et al., Circulation 110:1990-1995, 2004). As noted above, the FFQ used at the 1st visit reflected intakes in the 1st trimester; the time referent was “during this pregnancy,” that is from the date of the last menstrual period until the assessment, at an average of about 10 weeks gestation. […] Also as noted above, the FFQ used at the 2nd visit (26 to 28 weeks of gestation) reflected intakes during the 2nd trimester; the time referent was “during the past 3 months.” The 2nd trimester instrument was the same as that for the 1st trimester except that we assessed use of vitamins/supplements as part of the self-completed FFQ. […]

[4] = 2nd vs 1st (lowest) quartile of maternal intake, calorie adjusted, n = 1,161
[5] = 2nd vs 1st (lowest) quartile of maternal intake
[6] = 3rd vs 1st (lowest) quartile of maternal intake
[7] = 4th (highest) vs 1st (lowest) quartile of maternal intake
[8] = 2nd vs 1st (lowest) quartile of maternal intake, n = 1,038
[9] = 4th (highest) vs 1st (lowest) quartile of maternal intake, listed as vitamin E
[10] = 4th (highest) vs 1st (lowest) quartile

Row | Molecule | Any wheeze in the first 2 yrs, Univariate Model OR (95% CI) [1, 4] | Any wheeze in the first 2 yrs, Multivariable Model OR (95% CI) [1, 5] | Any wheeze in the first 2 yrs, Multivariable Model OR (95% CI) [1, 6] | Any wheeze in the first 2 yrs, Univariate Model OR (95% CI) [1, 6] | Any wheeze in the first 2 yrs, Multivariable Model OR (95% CI) [1, 7] | Any wheeze in the first 2 yrs, Univariate Model OR (95% CI) [1, 7] | Recurrent wheeze in the first 2 yrs, Multivariable Model OR (95% CI) [2, 5] | Recurrent wheeze in the first 2 yrs, Univariate Model OR (95% CI) [2, 8] | Recurrent wheeze in the first 2 yrs, Multivariable Model OR (95% CI) [2, 6] | Recurrent wheeze in the first 2 yrs, Univariate Model OR (95% CI) [2, 6] | Recurrent wheeze in the first 2 yrs, Multivariable Model OR (95% CI) [2, 7] | Recurrent wheeze in the first 2 yrs, Univariate Model OR (95% CI) [2, 7] | Association of total maternal intake with any wheeze in univariable models [1] | further results
1 | CC1=C(/C=C/C(C)=C/C=C/C(C)=C/C=C/C=C(C)/C=C/C=C(C)/C=C/C2=C(C)C[C@@H](O)CC2(C)C)C(C)(C)CCC1 [β Cryptoxanthin] | 0.80 (0.57, 1.13) | 0.82 (0.57, 1.18) | 0.81 (0.56, 1.18) | 0.72 (0.51, 1.02) | 0.97 (0.67, 1.41) | 0.92 (0.66, 1.30) | 1.33 (0.78, 2.28) | 1.36 (0.82, 2.24) | 0.97 (0.55, 1.72) | 0.95 (0.56, 1.63) | 1.28 (0.73, 2.26) | 1.05 (0.62, 1.78) |  | 
2 | CC1=CCCC(C)(C)C1/C=C/C(C)=C/C=C/C(C)=C/C=C/C=C(C)/C=C/C=C(C)/C=C/C1=C(C)CCCC1(C)C (stereo not drawn) [α Carotene, α-carotene] | 0.77 (0.54, 1.09) | 0.87 (0.60, 1.26) | 1.00 (0.69, 1.45) | 0.82 (0.58, 1.16) | 0.92 (0.63, 1.34) | 0.75 (0.53, 1.06) | 1.22 (0.71, 2.09) | 0.98 (0.60, 1.60) | 1.01 (0.57, 1.80) | 0.74 (0.43, 1.25) | 1.26 (0.72, 2.21) | 0.88 (0.53, 1.45) |  | 
3 | vitamin E | 0.71 (0.51, 1.01) | 0.90 (0.62, 1.31) | 0.84 (0.58, 1.22) | 0.67 (0.48, 0.95)^5 | 0.70 (0.48, 1.03) | 0.52 (0.36, 0.74)^5 | 0.79 (0.47, 1.34) | 0.60 (0.37, 0.98) | 0.90 (0.54, 1.52) | 0.68 (0.43, 1.10) | 0.49 (0.27, 0.90)^5 | 0.36 (0.20, 0.62)^5 | associated with lower risks | Association of total maternal intake with respiratory infections in the children [3]: not associated; Any Wheeze, Foods Only OR ([1]; 2nd vs 1st (lowest) quartile): 0.75; Any Wheeze, Supplements Only OR ([1]; 2nd vs 1st (lowest) quartile): 0.86; Any Wheeze, Foods Only OR ([1]; 3rd vs 1st (lowest) quartile): 0.67; Any Wheeze, Supplements Only OR ([1]; 3rd vs 1st (lowest) quartile): 0.70; Any wheeze in the first 2 yrs, Multivariable Model OR (95% CI) [1, 9]: 0.70; Any Wheeze, Foods Only OR [1, 10]: 0.69; Any Wheeze, Supplements Only OR [1, 10]: 0.63; Recurrent Wheeze, Foods Only OR ([2]; 2nd vs 1st (lowest) quartile): 0.66; Recurrent Wheeze, Supplements Only OR ([2]; 2nd vs 1st (lowest) quartile): 0.83; Recurrent Wheeze, Foods Only OR ([2]; 3rd vs 1st (lowest) quartile): 0.58; Recurrent Wheeze, Supplements Only OR ([2]; 3rd vs 1st (lowest) quartile): 0.50; Recurrent wheeze in the first 2 yrs, Multivariable Model OR (95% CI) [2, 9]: 0.49; Recurrent Wheeze, Foods Only OR [2, 10]: 0.61; Recurrent Wheeze, Supplements Only OR [2, 10]: 0.56
4 | [Cu] [Copper, copper] | 0.78 (0.55, 1.10) | 0.93 (0.64, 1.35) | 0.91 (0.62, 1.34) | 0.71 (0.50, 1.01) | 0.90 (0.61, 1.33) | 0.69 (0.49, 0.99)^5 | 0.75 (0.43, 1.30) | 0.63 (0.38, 1.03) | 1.02 (0.60, 1.75) | 0.67 (0.41, 1.09) | 0.90 (0.51, 1.59) | 0.57 (0.34, 0.95)^5 | associated with lower risks | 
5 | CC(C)=CCC/C(C)=C/C=C/C(C)=C/C=C/C(C)=C/C=C/C=C(C)/C=C/C=C(C)/C=C/C=C(\C)CCC=C(C)C [Lycopene, lycopene] | 1.27 (0.90, 1.80) | 1.50 (1.02, 2.19) | 1.67 (1.14, 2.45) | 1.26 (0.90, 1.79) | 0.96 (0.64, 1.42) | 0.83 (0.58, 1.19) | 1.06 (0.62, 1.83) | 0.88 (0.53, 1.46) | 1.40 (0.82, 2.40) | 1.01 (0.62, 1.64) | 0.75 (0.42, 1.33) | 0.70 (0.42, 1.17) |  | 
6 | CC1=C(/C=C/C(C)=C/C=C/C(C)=C/C=C/C=C(C)/C=C/C=C(C)/C=C/C2=C(C)CCCC2(C)C)C(C)(C)CCC1 [β Carotene, β-carotene] | 1.01 (0.71, 1.41) | 1.28 (0.88, 1.88) | 1.21 (0.82, 1.77) | 0.85 (0.60, 1.20) | 0.98 (0.66, 1.47) | 0.71 (0.50, 1.02) | 1.24 (0.72, 2.13) | 0.85 (0.52, 1.37) | 1.23 (0.72, 2.13) | 0.76 (0.46, 1.24) | 1.01 (0.56, 1.81) | 0.58 (0.34, 0.97)^5 | associated with lower risks | 
7 | Nc1nc2ncc(CNc3ccc(C(=O)N[C@@H](CCC(=O)O)C(=O)O)cc3)nc2c(=O)[nH]1 [Folic acid, folic acid] | 0.94 (0.67, 1.32) | 1.13 (0.78, 1.64) | 0.79 (0.54, 1.16) | 0.63 (0.44, 0.89)^5 | 0.89 (0.60, 1.31) | 0.64 (0.45, 0.91)^5 | 0.93 (0.55, 1.58) | 0.77 (0.48, 1.24) | 0.75 (0.43, 1.28) | 0.58 (0.35, 0.95)^5 | 0.68(0.38, 1.22) | 0.46 (0.27, 0.78)^5 | associated with lower risks | 
